Data taken from US20080020981A1, “Non-nucleoside reverse transcriptase inhibitors” (Roche Palo Alto LLC, priority 2006, published 2008).
Counter-ions that a name gives are not always drawn. Like-named read-outs stand apart in the source and are kept apart here.

Columns and labels:
[1] = molecular target: T1, HIV-RT enzyme (HIV-1 reverse transcriptase) (Human immunodeficiency virus type 1 group M subtype B, UniProt P03366); experiment: HIV-1 Reverse Transcriptase Assay Inhibitor IC50 Determination (RNA-dependent DNA polymerase activity, SPA); assay type: biochemical
T1 construct: Reactions were initiated by the addition of 30 μl of the HIV-RT enzyme
Protocol: HIV-1 Reverse Transcriptase Assay Inhibitor IC50 Determination
RNA-dependent DNA polymerase activity was measured using a biotinylated primer oligonucleotide and tritiated dNTP substrate. Newly synthesized DNA was quantified by capturing the biotinylated primer molecules on streptavidin coated Scintillation Proximity Assay (SPA) beads (Amersham). […] The biotinylated DNA primer was obtained from the Integrated DNA Technologies Inc. and the RNA template was synthesized by Dharmacon. […] Reactions were initiated by the addition of 30 μl of the HIV-RT enzyme (final concentrations of […]). Protein concentrations were adjusted to provide linear product formation for at least 30 min of incubation. After incubation at 30° for 30 min, the reaction was quenched by addition of 50 μl of 200 mM EDTA (pH 8.0) and 2 mg/ml SA-PVT SPA beads (Amersham, RPNQ0009, reconstituted in 20 mM Tris-HCl, pH 8.0, 100 mM EDTA and 1% BSA). The beads were left to settle overnight and the SPA signals were counted in a 96-well top counter-NXT (Packard). IC50 values were obtained by sigmoidal regression analysis using GraphPad Prism 3.0 (GraphPad Software, Inc.).

[2] = RNA-dependent DNA polymerase activity, SPA, 30 min at 30°, read-out: HIV-RT IC50

Row | Molecule | IC50 [1, 2] [nM] | melting point [°C] | IC50 [1] [nM]
1 | Cc1cc(S(N)(=O)=O)ccc1NC(=O)COc1ccc(Cl)c(Oc2cc(Cl)cc(C#N)c2)c1 [I-15, 2-[4-Chloro-3-(3-chloro-5-cyano-phenoxy)-phenoxy]-N-(2-methyl-4-sulfamoyl-phenyl)-acetamide] | 6.5 |  | 
2 | CC(C)(N)C#Cc1ccc(NC(=O)COc2ccc(Cl)c(Oc3cc(Cl)cc(C#N)c3)c2F)c(Cl)c1 [I-32, N-[4-(3-Amino-3-methyl-but-1-ynyl)-2-chloro-phenyl]-2-[4-chloro-3-(3-chloro-5-cyano-phenoxy)-2-fluoro-phenoxy]-acetamide] | 21.4 |  | 
3 | CCc1ccc(OCC(=O)Nc2ccc(S(N)(=O)=O)cc2C)c(F)c1Oc1cc(Cl)cc(C#N)c1 [I-6, 2-[3-(3-Chloro-5-cyano-phenoxy)-4-ethyl-2-fluoro-phenoxy]-N-(2-methyl-4-sulfamoyl-phenyl)-acetamide] | 8.4 | 188 to 189.6 | 
4 | N#Cc1cc(Cl)cc(Oc2cc(OCC(=O)Nc3ccc(S(N)(=O)=O)cc3Cl)ccc2Cl)c1 [I-10] | 7.4 | 217 to 219 | 
5 | 2-[4-Chloro-3-(3,5-dicyano-phenoxy)-2-fluoro-phenoxy]-N-(2-methyl-4-sulfamoyl-phenyl)-acetamide [I-14] | 6.4 |  | 
6 | Cc1cc(S(N)(=O)=O)ccc1NC(=O)COc1ccc(Cl)c(Oc2cc(Cl)cc(C#N)c2)c1F [I-2] | 12.8 | 209.9 to 212 | 
7 | N#Cc1cc(Cl)cc(Oc2c(Br)ccc(OCC(=O)Nc3ccc(S(N)(=O)=O)cc3Cl)c2F)c1 [I-5] | 18.7 | 250.9 to 252.3 | 
8 | N#Cc1cc(C#N)cc(Oc2c(Br)ccc(OCC(=O)Nc3ccc(S(N)(=O)=O)cc3Cl)c2F)c1 [I-21] | 19.1 | 255 to 257 | 
9 | N#Cc1cc(Oc2c(Cl)ccc(OCC(=O)Nc3ccc(S(N)(=O)=O)cc3Cl)c2F)cc(C2CC2)c1 [I-26] | 66.5 | 219 to 221 | 
10 | COc1cc(C#N)cc(Oc2c(Br)ccc(OCC(=O)Nc3ccc(S(N)(=O)=O)cc3C)c2F)c1 [I-16] | 5.1 | 220 to 223.3 | 
11 | COc1cc(C#N)cc(Oc2c(Cl)ccc(OCC(=O)Nc3ccc(S(N)(=O)=O)cc3Cl)c2F)c1 [I-12] | 8.2 | 211 to 212 | 
12 | CCc1cc(C#N)cc(Oc2c(Cl)ccc(OCC(=O)Nc3ccc(S(N)(=O)=O)cc3Cl)c2F)c1 [I-20, 2-[4-Chloro-3-(3-cyano-5-ethyl-phenoxy)-2-fluoro-phenoxy]-N-(2-chloro-4-sulfamoyl-phenyl)-acetamide] | 31.7 |  | 
13 | Cc1cc(S(N)(=O)=O)ccc1NC(=O)COc1ccc(Cl)c(Oc2cc(C#N)cc(C#N)c2)c1F [I-13] | 3.8 | 264.5 to 265.2 | 
14 | Cc1cc(S(N)(=O)=O)ccc1NC(=O)COc1ccc(Br)c(Oc2cc(Cl)cc(C#N)c2)c1F [I-4, 2-[4-Bromo-3-(3-chloro-5-cyano-phenoxy)-2-fluoro-phenoxy]-N-(2-methyl-4-sulfamoyl-phenyl)-acetamide] | 6.5 | 226 to 228.8 | 
15 | CCC(=O)NS(=O)(=O)c1ccc(NC(=O)COc2ccc(Br)c(Oc3cc(Cl)cc(C#N)c3)c2F)c(C)c1 (as salt: Na) [I-24] |  | 268.1 to 270 | 
16 | CC(C)(O)C#Cc1ccc(NC(=O)COc2ccc(Br)c(Oc3cc(Cl)cc(C#N)c3)c2F)c(Cl)c1 [I-31, 2-[4-Bromo-3-(3-chloro-5-cyano-phenoxy)-2-fluoro-phenoxy]-N-[2-chloro-4-(3-hydroxy-3-methyl-but-1-ynyl)-phenyl]-acetamide] |  |  | 82.1
17 | N#Cc1cc(Br)cc(Oc2c(Cl)ccc(OCC(=O)Nc3ccc(S(N)(=O)=O)cc3Cl)c2F)c1 [I-19] | 14.9 | 242.2 to 244.9 | 
18 | CCc1ccc(OCC(=O)Nc2ccc(S(N)(=O)=O)cc2Cl)c(F)c1Oc1cc(Cl)cc(C#N)c1 [I-7] | > 10000 |  | 
19 | Cc1cc(C(N)=O)ccc1NC(=O)COc1ccc(Br)c(Oc2cc(Cl)cc(C#N)c2)c1F [I-28, 4-{2-[4-Bromo-3-(3-chloro-5-cyano-phenoxy)-2-fluoro-phenoxy]-acetylamino}-3-methyl-benzamide] | 6.9 | 250.6 to 252.5 | 
20 | N#Cc1cc(Cl)cc(Oc2c(C3CC3)ccc(OCC(=O)Nc3ccc(S(N)(=O)=O)cc3Cl)c2F)c1 [I-8] | 18.3 | 210 to 211 | 
21 | N#Cc1cc(Cl)cc(Oc2c(Cl)ccc(OCC(=O)Nc3ccc(C(=O)O)cc3Cl)c2F)c1 [I-27, 3-Chloro-4-{2-[4-chloro-3-(3-chloro-5-cyano-phenoxy)-2-fluoro-phenoxy]-acetylamino}-benzoic acid] | 6.1 |  | 
22 | CCC(=O)NS(=O)(=O)c1ccc(NC(=O)COc2ccc(Br)c(Oc3cc(Cl)cc(C#N)c3)c2F)c(Cl)c1 (as salt: Na) [I-23] |  | 261 to 264 | 
23 | COc1cc(C#N)cc(Oc2c(Br)ccc(OCC(=O)Nc3ccc(S(N)(=O)=O)cc3Cl)c2F)c1 [I-17] | 12.6 | 213.9 to 217.9 | 
24 | N#Cc1cc(Cl)cc(Oc2c(Cl)ccc(OCC(=O)Nc3ccc(S(N)(=O)=O)cc3Cl)c2F)c1 [I-1, 2-[4-Chloro-3-(3-chloro-5-cyano-phenoxy)-2-fluoro-phenoxy]-N-(2-chloro-4-sulfamoyl-phenyl)-acetamide] | 16.2 | 233.3 to 247.6 | 
25 | CCC(=O)NS(=O)(=O)c1ccc(NC(=O)COc2ccc(Br)c(Oc3cc(Cl)cc(C#N)c3)c2F)c(Cl)c1 [I-23] | 4.8 |  | 
26 | COc1cc(C#N)cc(Oc2c(Cl)ccc(OCC(=O)Nc3ccc(S(N)(=O)=O)cc3C)c2F)c1 [I-11] | 3.1 | 122 to 123.2 | 
27 | 2-[4-Bromo-3-(3-chloro-5-cyano-phenoxy)-2-fluoro-phenoxy]-N-[2-chloro-4-(2,4-dioxo-imidazolidin-1-yl)-phenyl]-acetamide [I-30] | 15.5 |  | 
28 | Cc1cc(S(N)(=O)=O)ccc1NC(=O)COc1ccc(Cl)c(Oc2cc(Br)cc(C#N)c2)c1F [I-18] | 6.6 | 234.9 to 236.6 | 
29 | 2-[3-(3-Chloro-5-cyano-phenoxy)-4-cyclopropyl-2-fluoro-phenoxy]-N-(2-chloro-4-sulfamoyl-phenyl)-acetamide [I-9] | 7.7 |  | 
30 | CCC(=O)NS(=O)(=O)c1ccc(NC(=O)COc2ccc(Br)c(Oc3cc(Cl)cc(C#N)c3)c2F)c(C)c1 [I-24] | 5.7 |  | 
